Data taken from ChEMBL document CHEMBL4725344, “Development of Highly Potent Carbazole Amphiphiles as Membrane-Targeting Antimicrobials for Treating Gram-Positive Bacterial Infections” (J Med Chem, 2020).
Converted amounts (≈) assume the structure as drawn.

What was measured:
[1] = Solubility of the compound in water; assay type: physicochemical; conditions: buffer
Staphylococcus aureus [2] = assay: Antibacterial activity against methicillin-resistant Staphylococcus aureus NCTC 10442 measured after 24 hrs by microplate reader analysis; assay type: functional
Staphylococcus aureus [3] = assay: Antibacterial activity against methicillin-resistant Staphylococcus aureus N315 measured after 24 hrs by microplate reader analysis; assay type: functional
Staphylococcus aureus [4] = assay: Antibacterial activity against Staphylococcus aureus ATCC 29213 measured after 24 hrs by microplate reader analysis; assay type: functional
[5] = Hemolytic activity in rabbit erythrocytes measured after 1 hr by microplate reader analysis; assay type: ADME, cell-based, Oryctolagus cuniculus, Erythrocyte
Staphylococcus aureus [6] = assay: Bactericidal activity against Staphylococcus aureus ATCC 29213 assessed as log reduction in bacterial count at 8 times MIC preincubated for 4 hrs followed by replating on MHA medium measured after 24 hrs by time kill assay; assay type: functional; conditions: time 28 hrs
[7] = Cytotoxicity against mouse J774.A1 cells assessed as cell viability at […] ug/ml measured after 24 hrs by CCK8 assay relative to control; assay type: cell-based; conditions: dose 1.56 µg/ml, read-out: Activity
[8] = Cytotoxicity against mouse J774.A1 cells assessed as cell viability at 3.125 ug/ml measured after 24 hrs by CCK8 assay relative to control; assay type: cell-based; conditions: at 3.125 µg/mL, read-out: Activity
[9] = Cytotoxicity against mouse J774.A1 cells assessed as cell viability at 12.5 ug/ml measured after 24 hrs by CCK8 assay relative to control; assay type: cell-based; conditions: at 12.5 µg/mL, read-out: Activity
[10] = Cytotoxicity against mouse J774.A1 cells assessed as cell viability at 25 ug/ml measured after 24 hrs by CCK8 assay relative to control; assay type: cell-based; conditions: at 25 µg/mL, read-out: Activity
[11] = Cytotoxicity against mouse J774.A1 cells assessed as cell viability at 50 ug/ml measured after 24 hrs by CCK8 assay relative to control; assay type: cell-based; conditions: at 50 µg/mL, read-out: Activity
[12] = Cytotoxicity against mouse J774.A1 cells assessed as cell viability at 6.25 ug/ml measured after 24 hrs by CCK8 assay relative to control; assay type: cell-based; conditions: at 6.25 µg/mL, read-out: Activity
Staphylococcus aureus [13] = assay: Antibacterial activity against Staphylococcus aureus ATCC 29213 infected in cyclophosphamide-immunosuppressed C57BL6 mouse cornea assessed as log reduction in corneal bacterial count at 5% administered as topical solution for 4 times per day for 3 days and measured post-last dose by standard plate counting method; assay type: functional; conditions: time 3 day
Staphylococcus aureus [14] = assay: Bactericidal activity against Staphylococcus aureus ATCC 29213 assessed as log reduction in bacterial count at 4 times MIC preincubated for 4 hrs followed by replating on MHA medium measured after 24 hrs by time kill assay; assay type: functional; conditions: time 28 hrs
[15] = Cytotoxicity against mouse J774.A1 cells assessed as cell viability at 100 ug/ml measured after 24 hrs by CCK8 assay relative to control; assay type: cell-based; conditions: at 100 µg/mL, read-out: Activity
[16] = Selectivity ratio of MIC for methicillin-resistant Staphylococcus aureus NCTC 10442 to MIC for Staphylococcus epidermidis CMCC 26069; assay type: functional
Bacillus spizizenii = assay: Antibacterial activity against Bacillus subtilis ATCC 6633 measured after 24 hrs by microplate reader analysis; assay type: functional
[17] = Selectivity ratio of MIC for methicillin-resistant Staphylococcus aureus N315 to MIC for Staphylococcus epidermidis CMCC 26069; assay type: functional
[18] = Selectivity ratio of MIC for Staphylococcus aureus ATCC 29213 to MIC for Bacillus subtilis CMCC 63501; assay type: functional
[19] = Selectivity ratio of MIC for Staphylococcus aureus ATCC 29213 to MIC for Bacillus subtilis ATCC 6633; assay type: functional
[20] = Selectivity ratio of MIC for methicillin-resistant Staphylococcus aureus NCTC 10442 to MIC for Staphylococcus epidermidis ATCC 12228; assay type: functional
[21] = Selectivity ratio of MIC for methicillin-resistant Staphylococcus aureus N315 to MIC for Bacillus subtilis ATCC 6633; assay type: functional
[22] = Selectivity ratio of MIC for methicillin-resistant Staphylococcus aureus N315 to MIC for Staphylococcus epidermidis ATCC 12228; assay type: functional
[23] = Selectivity ratio of MIC for methicillin-resistant Staphylococcus aureus NCTC 10442 to MIC for Bacillus subtilis ATCC 6633; assay type: functional
[24] = Selectivity ratio of MIC for methicillin-resistant Staphylococcus aureus N315 to MIC for Bacillus subtilis CMCC 63501; assay type: functional
Bacillus subtilis = assay: Antibacterial activity against Bacillus subtilis CMCC 63501 measured after 24 hrs by microplate reader analysis; assay type: functional
[25] = Selectivity ratio of MIC for Staphylococcus aureus ATCC 29213 to MIC for Staphylococcus epidermidis ATCC 12228; assay type: functional
[26] = Selectivity ratio of MIC for Staphylococcus aureus ATCC 29213 to MIC for Staphylococcus epidermidis CMCC 26069; assay type: functional
[27] = Selectivity ratio of MIC for methicillin-resistant Staphylococcus aureus NCTC 10442 to MIC for Bacillus subtilis CMCC 63501; assay type: functional
[28] = tested on: Staphylococcus epidermidis; assay: Antibacterial activity against Staphylococcus epidermidis CMCC 26069 measured after 24 hrs by microplate reader analysis; assay type: functional
[29] = tested on: Staphylococcus epidermidis; assay: Antibacterial activity against Staphylococcus epidermidis ATCC 12228 measured after 24 hrs by microplate reader analysis; assay type: functional

CCCCCCCCNCC(O)COc1cccc2c1c1ccccc1n2CC=C(C)C (stereo unspecified)
solubility [1]: Insoluble
MIC (Staphylococcus aureus [2]): 1.56 µg/mL (≈ 3.57 µM)
MIC (Staphylococcus aureus [3]): 1.56 µg/mL (≈ 3.57 µM)
MIC (Staphylococcus aureus [4]): 6.25 µg/mL (≈ 14.3 µM)
HC50 at 1 h [5]: > 200 µg/mL

CCCCCCCCCCNCC(O)COc1cccc2c1c1ccccc1n2CC=C(C)C (stereo unspecified)
solubility [1]: Insoluble
MIC (Staphylococcus aureus [2]): 3.12 µg/mL (≈ 6.72 µM)
MIC (Staphylococcus aureus [3]): 1.56 µg/mL (≈ 3.36 µM)
MIC (Staphylococcus aureus [4]): 6.25 µg/mL (≈ 13.4 µM)
HC50 at 1 h [5]: > 200 µg/mL

CN[C@H](CC(C)C)C(=O)N[C@H]1C(=O)N[C@@H](CC(N)=O)C(=O)N[C@H]2C(=O)N[C@H]3C(=O)N[C@H](C(=O)N[C@H](C(=O)O)c4cc(O)cc(O)c4-c4cc3ccc4O)[C@H](O)c3ccc(c(Cl)c3)Oc3cc2cc(c3O[C@@H]2O[C@H](CO)[C@@H](O)[C@H](O)[C@H]2O[C@H]2C[C@](C)(N)[C@H](O)[C@H](C)O2)Oc2ccc(cc2Cl)[C@H]1O [VANCOMYCIN]
log(activity) (Staphylococcus aureus [6]): 1.45
viability at 24 h, 1.56 ug/ml [7]: 101%
viability at 24 h, 3.125 ug/ml [8]: 99.8%
viability at 24 h, 12.5 ug/ml [9]: 98.2%
viability at 24 h, 25 ug/ml [10]: 92%
viability at 24 h, 50 ug/ml [11]: 91%
MIC (Staphylococcus aureus [2]): 1.56 µg/mL (≈ 1.08 µM)
viability at 24 h, 6.25 ug/ml [12]: 99.5%
log(activity) (Staphylococcus aureus [13]): 3.99
log(activity) (Staphylococcus aureus [14]): 0.71
MIC (Staphylococcus aureus [3]): 1.56 µg/mL (≈ 1.08 µM)
MIC (Staphylococcus aureus [4]): 0.78 µg/mL (≈ 0.538 µM)
viability at 24 h, 100 ug/ml [15]: 89.9%

CC(C)=CCn1c2ccccc2c2c(OCC(O)CNC(=O)[C@@H](N)CCCNC(=N)N)cccc21 (stereo partly specified)
Selectivity ratio [16]: 2
MIC (Bacillus spizizenii): 3.12 µg/mL (≈ 6.5 µM)
Selectivity ratio [17]: 2
Selectivity ratio [18]: 2
Selectivity ratio [19]: 2
Selectivity ratio [20]: 2
MIC (Staphylococcus aureus [2]): 6.25 µg/mL (≈ 13 µM)
Selectivity ratio [21]: 2
Selectivity ratio [22]: 2
Selectivity ratio [23]: 2
Selectivity ratio [24]: 2
MIC (Bacillus subtilis): 3.12 µg/mL (≈ 6.5 µM)
MIC (Staphylococcus aureus [3]): 6.25 µg/mL (≈ 13 µM)
MIC (Staphylococcus aureus [4]): 6.25 µg/mL (≈ 13 µM)
Selectivity ratio [25]: 2
Selectivity ratio [26]: 2
HC50 at 1 h [5]: > 200 µg/mL
Selectivity ratio [27]: 2
MIC [28]: 3.12 µg/mL (≈ 6.5 µM)
MIC [29]: 3.12 µg/mL (≈ 6.5 µM)

CC(C)=CCn1c2ccccc2c2c(OCC(O)CNC(=O)[C@@H](N)CCCCN)cccc21 (stereo partly specified)
Selectivity ratio [16]: 2
MIC (Bacillus spizizenii): 6.25 µg/mL (≈ 13.8 µM)
Selectivity ratio [17]: 2
Selectivity ratio [18]: 2
Selectivity ratio [19]: 2
Selectivity ratio [20]: 2
MIC (Staphylococcus aureus [2]): 25 µg/mL (≈ 55.2 µM)
Selectivity ratio [21]: 2
Selectivity ratio [22]: 2
Selectivity ratio [23]: 2
Selectivity ratio [24]: 2
MIC (Bacillus subtilis): 6.25 µg/mL (≈ 13.8 µM)
MIC (Staphylococcus aureus [3]): 12.5 µg/mL (≈ 27.6 µM)
MIC (Staphylococcus aureus [4]): 25 µg/mL (≈ 55.2 µM)
Selectivity ratio [25]: 2
Selectivity ratio [26]: 2
HC50 at 1 h [5]: > 200 µg/mL
Selectivity ratio [27]: 2
MIC [28]: 6.25 µg/mL (≈ 13.8 µM)
MIC [29]: 6.25 µg/mL (≈ 13.8 µM)

CCCN(CCC)CC(O)COc1cccc2c1c1ccccc1n2CC=C(C)C (stereo unspecified)
MIC (Staphylococcus aureus [2]): > 50 µg/mL
MIC (Staphylococcus aureus [3]): > 50 µg/mL
MIC (Staphylococcus aureus [4]): > 50 µg/mL
HC50 at 1 h [5]: > 200 µg/mL

CCCn1c2ccccc2c2c(OCC3CO3)cccc21 (stereo unspecified)
MIC (Staphylococcus aureus [2]): > 50 µg/mL
MIC (Staphylococcus aureus [3]): > 50 µg/mL
MIC (Staphylococcus aureus [4]): > 50 µg/mL
HC50 at 1 h [5]: > 200 µg/mL

CCCCCCCn1c2ccccc2c2c(OCC(O)CN(C)C)cccc21 (stereo unspecified)
MIC (Staphylococcus aureus [2]): 12.5 µg/mL (≈ 32.7 µM)
MIC (Staphylococcus aureus [3]): 12.5 µg/mL (≈ 32.7 µM)
MIC (Staphylococcus aureus [4]): 6.25 µg/mL (≈ 16.3 µM)
HC50 at 1 h [5]: 182 µg/mL

CN(C)CC(O)COc1cccc2c1c1ccccc1n2C (stereo unspecified)
MIC (Staphylococcus aureus [2]): > 50 µg/mL
MIC (Staphylococcus aureus [3]): > 50 µg/mL
MIC (Staphylococcus aureus [4]): > 50 µg/mL
HC50 at 1 h [5]: > 200 µg/mL

CC[N+](C)(CC)CC(O)COc1cccc2c1c1ccccc1n2CC=C(C)C.[I-] (stereo unspecified)
MIC (Staphylococcus aureus [2]): 6.25 µg/mL
MIC (Staphylococcus aureus [3]): 6.25 µg/mL
MIC (Staphylococcus aureus [4]): 6.25 µg/mL
HC50 at 1 h [5]: 142 µg/mL

CC(C)=CCn1c2ccccc2c2c(OCC(O)CN3CCCC3)cccc21 (stereo unspecified)
MIC (Staphylococcus aureus [2]): 6.25 µg/mL (≈ 16.5 µM)
MIC (Staphylococcus aureus [3]): 6.25 µg/mL (≈ 16.5 µM)
MIC (Staphylococcus aureus [4]): 12.5 µg/mL (≈ 33 µM)
HC50 at 1 h [5]: 76.2 µg/mL

CCCC[N+](C)(CCCC)CC(O)COc1cccc2c1c1ccccc1n2CC=C(C)C.[I-] (stereo unspecified)
MIC (Staphylococcus aureus [2]): 1.56 µg/mL
MIC (Staphylococcus aureus [3]): 1.56 µg/mL
MIC (Staphylococcus aureus [4]): 1.56 µg/mL
HC50 at 1 h [5]: 61.3 µg/mL
